Reference: US9079880B2, “Rho kinase inhibitors” (Boehringer Ingelheim International GmbH, priority 2010, dated 2015)
pIC50: −log10 of the molar value.

Key:
ROCKII (1-543) [1] = target: T1, ROCKII (1-543) (Homo sapiens (Human), UniProt O75116); test: IMAP Assay (fluorescence polarization, FAM S6 peptide); format: biochemical; details: 100 μM ATP, 200 nM FAM S6 peptide, 1 nM kinase; read-out: Assay 2 IC50
Protocol: This assay is performed using FAM S6 substrate peptide (Catalogue #R7184) and IMAP FP Screening Express Kit detection reagents from Molecular Devices (Sunnyvale, Calif.) in IMAP kinase reaction buffer (Tris-HCl, pH 7.2, 10 mM MgCl2, 0.05% NaN3, 0.1% phosphate-free BSA) containing 1 mM DTT. Test compounds dissolved in neat DMSO at 0.3 mg/mL are serially diluted 1 to 3 for concentration response in 100% DMSO. The DMSO serial dilutions are further diluted 33.33-fold in kinase reaction buffer, and 10 μL of this buffer dilution is transferred to Corning black 96-well half area NBS plates for a final top concentration of 3 μg/mL in 1% DMSO. 10 μL aliquot of 3 nM ROCKII (1-543) diluted in kinase reaction buffer is added to each assay well for a final concentration of 1 nM kinase. 10 μL of a mixture of 600 nM FAM S6 peptide and 300 μM ATP diluted in kinase reaction buffer is added to each well for a final concentration of 200 nM peptide and 100 μM ATP. The kinase reaction mixture is incubated for 60 minutes at room temperature. Positive controls are reaction mixtures containing no test compound and negative controls (blanks) are reaction mixtures containing no kinase. The kinase reaction is stopped by addition of 60 μL IMAP progressive binding reagent (Catalog #R7284) diluted 400-fold in 1× Binding buffer A. After 30 min of incubation at room temperature, the plates are read for fluorescence polarization on Analyst Plate Reader using Ex 485 nm, Em 530 nm, and FL 505 dichroic mirror. The mP signals are converted to percent of control (POC) values using the formula: POC=100*(Signal−BCTRL)÷(PCTRL−BCTRL)
Where Signal is the test well signal, BCTRL is the average of background (negative control) well signals on the plate and PCTRL is the average of positive control well signals on the plate. For the concentration-responsive compounds, POC as a function of test compound concentration is fitted to a 4-parameter logistic equation of the form: Y=A+(B−A)/[1+(x/C)D] Where A, B, C, and D are fitted parameters (parameter B is fixed at zero POC), and x and y are the independent and dependent variables, respectively. The IC50 is determined as the inflection point parameter, C.
Target sequence in this assay (O75116 1-543, species assumed): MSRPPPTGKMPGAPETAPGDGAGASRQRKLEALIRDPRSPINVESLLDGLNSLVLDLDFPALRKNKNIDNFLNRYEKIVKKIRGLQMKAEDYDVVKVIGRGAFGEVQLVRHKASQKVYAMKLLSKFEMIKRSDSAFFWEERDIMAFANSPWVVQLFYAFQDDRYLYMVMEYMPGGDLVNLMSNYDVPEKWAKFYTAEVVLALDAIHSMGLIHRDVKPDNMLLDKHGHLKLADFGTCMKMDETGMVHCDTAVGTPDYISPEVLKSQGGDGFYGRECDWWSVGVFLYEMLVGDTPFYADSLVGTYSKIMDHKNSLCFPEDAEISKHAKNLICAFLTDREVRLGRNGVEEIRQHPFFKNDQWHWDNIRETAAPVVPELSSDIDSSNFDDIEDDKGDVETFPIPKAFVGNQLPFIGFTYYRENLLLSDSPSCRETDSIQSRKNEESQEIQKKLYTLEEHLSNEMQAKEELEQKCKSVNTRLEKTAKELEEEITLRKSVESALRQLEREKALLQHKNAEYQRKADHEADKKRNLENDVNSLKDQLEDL

ROCKII (1-543) [2] = target: T1, ROCKII (1-543); test: Luciferin-Luciferase Assay (PKLight ATP detection); format: biochemical; details: 750 nM ATP, 500 nM peptide, 7.5 nM kinase
Protocol: 1. Luciferin-Luciferase Assay
The activity of ROCKII (1-543) kinase was measured utilizing Cambrex PKLight ATP Detection Reagent, a homogeneous assay technology using luciferin-luciferase to quantify residual ATP. The assay was performed in 384-well low-volume, white, non-binding surface microtiter plates (Corning). The assay buffer was 25 mM HEPES, pH 7.5, 10 mM MgCl2, 50 mM KCl, 0.2% BSA, 0.01% CHAPS, 100 μM Na3VO4 and 0.5 mM DTT. Test compounds, dissolved in neat DMSO at 500 μg/mL, were serially diluted for dose response for a final starting concentration of 3 μg/mL in 1% DMSO of assay buffer. ROCKII (1-543) (62,408Da) was diluted in assay buffer to a final concentration of 7.5 nM in a total volume of 15 μL. Positive controls were reaction mixtures containing no test compound; negative controls (blanks) were reaction mixtures containing no kinase. After 15 minutes of pre-incubation of the test compounds with the kinase, a mixture of ATP and peptide substrate ([…]) in assay buffer was added to each well for a final concentration of 750 nM ATP and 500 nM peptide, respectively. After 90 minutes of incubation of the kinase reaction at 28° C. temperature, 10 μL of PKLight ATP Detection Reagent (warmed to room temperature previously) was added to each well. The assay plate was incubated at room temperature for additional 15 minutes and then read on an Analyst in luminescence mode. Dose-response experiments for each of the test compounds were conducted in quadruplet. IC50 values of test compounds represent 50% response of the positive control from the dose-response curve.
Target sequence in this assay (O75116 1-543): as the sequence (O75116 1-543, species assumed) above

[3] = tested on: spontaneously hypertensive rat, renal hypertensive rat and deoxycortisone acetate salt hypertensive rat models; details: cited from earlier work
Dahl salt-sensitive rats = details: rat, in vivo; cited from earlier work
[4] = tested on: neointimal formation in rats; details: cited from earlier work
[5] = tested on: IL-1 beta-induced coronary stenosis; details: long term treatment; cited from earlier work
rat stroke model = details: in vivo; cited from earlier work

Compound	pIC50 (ROCKII (1-543) [1])	pIC50 (ROCKII (1-543) [2])	also measured
CN(C)[C@H]1CCc2nc(NC(=O)c3cccc([C@H]4CCCN4C(=O)c4ccc5[nH]c(=O)ccc5c4)c3)sc2C1 [Compound 108]	8.44	8.64	
N#Cc1cccc2c1CCN2C(=O)N1CCC[C@@H]1c1cccc(C(=O)Nc2nc3c(s2)C[C@@H](N2CCOCC2)CC3)c1 [Compound 110]	8.54	8.54	
COc1ccc(C(=O)N2CCC[C@@H]2c2cccc(C(=O)Nc3nc4c(s3)C[C@@H](N3CCOCC3)CC4)c2)cc1OC [Compound 112]	8.17	8.44	
COc1ccc(C(=O)N2CCC[C@@H]2c2cccc(C(=O)Nc3nc4c(s3)C[C@@H](N3CCOCC3)CC4)c2)cc1C [Compound 116]	8.01	8.11	
O=C(Nc1nc2c(s1)C[C@@H](N1CCOCC1)CC2)c1cccc([C@H]2CCCN2C(=O)c2ccc(-c3cnco3)cc2)c1 [Compound 118]	8.16	8.60	
O=C(Nc1nc2c(s1)C[C@@H](N1CCOCC1)CC2)c1cccc([C@H]2CCCN2C(=O)c2csc(-c3ccncc3)n2)c1 [Compound 120]	8.10	8.49	
O=C(Nc1nc2c(s1)C[C@@H](N1CCOCC1)CC2)c1cccc([C@H]2CCCN2C(=O)c2ccc(-n3ccnc3)cc2)c1 [Compound 122]	8.08	8.46	
NC(=O)c1ccc2nc(C(=O)N3CCC[C@@H]3c3cccc(C(=O)Nc4nc5c(s4)C[C@@H](N4CCOCC4)CC5)c3)cn2c1 [Compound 124]	8.17	8.64	
O=C(Nc1nc2c(s1)C[C@@H](N1CCOCC1)CC2)c1cccc([C@H]2CCCN2C(=O)c2ccc3[nH]c(=O)ccc3c2)c1 [Compound 126]	8.15	8.57	
Cc1nc(-c2ccncc2)sc1C(=O)N1CCC[C@@H]1c1cccc(C(=O)Nc2nc3c(s2)C[C@@H](N2CCOCC2)CC3)c1 [Compound 128]	7.54	8.44	
O=C(Nc1nc2c(s1)C[C@@H](N1CCOCC1)CC2)c1cccc([C@H]2CCCN2C(=O)c2ccc3cc(O)ccc3c2)c1 [Compound 130]	8.20	8.60	
O=C(Nc1nc2c(s1)C[C@@H](N1CCOCC1)CC2)c1cccc([C@H]2CCCN2C(=O)c2ccc(-c3ccncc3)cc2)c1 [Compound 132]	7.77	8.59	
Nc1nonc1-n1nnc(C(=O)N2CCC[C@@H]2c2cccc(C(=O)Nc3nc4c(s3)C[C@@H](N3CCOCC3)CC4)c2)c1-c1ccccc1 [Compound 134]	7.52	8.57	
O=C(Nc1nc2c(s1)C[C@@H](N1CCOCC1)CC2)c1cccc([C@H]2CCCN2C(=O)c2csc(-c3cccnc3)n2)c1 [Compound 136]	8.16	8.59	
O=C(Nc1nc2c(s1)C[C@@H](N1CCOCC1)CC2)c1cccc([C@H]2CCCN2C(=O)c2cccc(-c3cn[nH]c3)c2)c1 [Compound 140]	8.31	8.60	
CN1CCc2nc(NC(=O)c3cccc([C@H]4CCCN4C(=O)c4cn5ccc(C#N)cc5n4)c3)sc2C1 [Compound 148, 3-[(R)-1-(7-Cyano-imidazo[1,2-a]pyridine-2-carbonyl)-pyrrolidin-2-yl]-N-(5-methyl-4,5,6,7-tetrahydro-thiazolo[5,4-c]pyridin-2-yl)-benzamide]	7.92	8.54	
N#Cc1ccc(NC(=O)COc2cccc(C(=O)Nc3nc4c(s3)CC(N3CCN(C5CC5)CC3)CC4)c2)cc1 (stereo not drawn) [Compound 152]	7.62	8.21	
CN1CCN(C2CCc3nc(NC(=O)c4cccc(OCC(=O)Nc5ccc(C#N)cc5)c4)sc3C2)CC1 (stereo not drawn) [Compound 154]	7.48	8.19	
COCCN(C)C1CCc2nc(NC(=O)c3cccc(OCC(=O)Nc4ccc(C#N)cc4)c3)sc2C1 (stereo not drawn) [Compound 156]	7.51	8.14	
C[C@@H](N)[C@H]1CC[C@H](C(=O)Nc2ccncc2)CC1 [Compound Y-27632, Y-27632]			blood pressure in control rats ([3]; control rats): only a minor effect on blood pressure; blood pressure in three rat models of hypertension ([3]; hypertensive rats): significantly decrease blood pressure; ventricular hypertrophy and function (Dahl salt-sensitive rats): improve ventricular hypertrophy and function; neointimal formation [4]: inhibited neointimal formation
O=S(=O)(c1cccc2cnccc12)N1CCCNCC1 [fasudil]			coronary constrictive remodeling [5]: promote a regression of coronary constrictive remodeling; coronary stenosis [5]: progressively reduce coronary stenosis; infarct size and neurologic deficit (rat stroke model): reduce both the infarct size and neurologic deficit
